The values below come from patent US20180312844A1, “TREATMENT FOR CANCER METASTASIS” (The Board of Regents of the UIniversity of Texas System, priority 2015, published 2018).

The test system of test [1] is human melanoma metastases in visceral organs. Put plainly: Metastatic disease burden by total bioluminescence signal from visceral organs. Format: in vivo, NSG mice. From the text: (§1) Melanoma specimens were obtained with informed consent from all patients according to protocols approved by the Institutional Review Boards of the University of Michigan Medical School (IRBMED approvals HUM00050754 and HUM00050085 (Quintana et al., 2012) and the University of Texas Southwestern Medical Center. Unless otherwise indicated, patient-derived xenografts were established by subcutaneously injecting 100 freshly dissociated melanoma cells into the right flanks of NOD/SCID IL2Rγ^null (NSG) mice in 25% high-protein Matrigel, or by injecting intravenously or intrasplenically, depending on the experiment. The subcutaneous tumors were measured every 10 days until any tumor in the mouse cohort reached 2.5 cm in its largest diameter. Mice were monitored daily for signs of distress and euthanized according to a standard body condition score or when their tumors reached 2.5 cm in largest diameter, whichever came first. […] After intravenous and intrasplenic injections mice were imaged every month until the bioluminescence signal was saturated, then mice were euthanized and organs were analyzed visually and by bioluminescence imaging for the presence of micro and macrometastases. […] Reporters of mitochondrial mass, mitochondrial membrane potential, and ROS were used to stain equal numbers of dissociated melanoma cells and analyzed by flow cytometry. […]

In test [2] the test system is human melanoma cells (M405, M481, UT10) transplanted subcutaneously. Kind of test: Growth of primary subcutaneous tumors of patient-derived melanoma xenografts in NSG mice. The class given is in vivo.
Source text: as §1
On the technique in general: Xenograft models place foreign cells or tissue in a host animal.

In test [3] the test system is circulating human melanoma cells. Kind of test: Frequency of circulating melanoma cells in the blood by flow cytometry. Format: in vivo, NSG mice.
Source text: as §1
For orientation: In flow cytometry, cells or beads pass a laser one at a time.

Another test relates to melanoma. To be noted: at 5 years; 2011 meta-analysis; adjuvant treatment of melanoma; cited from earlier work.

For `CC(=O)N[C@@H](CS)C(=O)O` [NAC, N-acetyl-cysteine], the metastatic disease burden entry in test [1] (NAC 200 mg/kg/day s.c., mice transplanted with M405 and M481, FIG. 4C) is “significantly increased”. Moreover, the “growth of primary subcutaneous tumors” value in test [2] (NAC 200 mg/kg/day, daily subcutaneous injection, melanomas M405, M481, UT10, vs PBS, FIG. 4A) is recorded as “In no case did NAC treatment significantly affect”. In addition, the “frequency of melanoma cells in the blood” value in test [3] (NAC 200 mg/kg/day s.c., mice transplanted with M405 and UT10, FIG. 4B) is listed as “significantly increased”.
Turning to `CN(Cc1cnc2nc(N)nc(N)c2n1)c1ccc(C(=O)N[C@@H](CCC(=O)O)C(=O)O)cc1` [Methotrexate], the metastatic disease burden entry in test [1] (methotrexate 1.25 mg/kg/day with thymidine and hypoxanthine, M405, M481, UT10, FIG. 5D) is given as “significantly reduced”. Further, the “growth of primary subcutaneous tumors” value in test [2] (low dose methotrexate 1.25 mg/kg/day with thymidine and hypoxanthine, M405, M481, UT10, vs DMSO control, FIG. 5B) was “no significant effect”. The “frequency of circulating melanoma cells in the blood” value in test [3] (methotrexate 1.25 mg/kg/day with thymidine and hypoxanthine, M405, M481, UT10, FIG. 5C) is reported as “significantly reduced”.
Take interferon: the increase in survival with melanoma is 3%.
